Assays:
Format in all cases: in vivo
[1] = tested on: Panicum miliaceum (PANMVI); test: Glasshouse herbicide test, Table B1; conditions: POST Application, evaluated after 14 days
[2] = tested on: Oryza sativa (ORYSA, Rice); test: Glasshouse herbicide test, Table B1 (crop damage); conditions: POST Application, evaluated after 14 days
Sinapis arvensis (SINAR) = test: Glasshouse herbicide test, Table B1; conditions: POST Application, evaluated after 14 days
[3] = tested on: Ipomoea hederacea (IPOHE); test: Glasshouse pre-/post-emergence herbicide test, Table B2; conditions: 130 g/h, evaluated after 13 days
Method: (§1) Seeds of a variety of test species are sown in standard soil in pots Amaranthus retoflexus (AMARE), Setaria faberi (SETFA), Echinochloa crus-galli (ECHCG), Ipomoea hederacea (IPOHE)). After cultivation for one day (pre-emergence) or after 8 days cultivation (post-emergence) under controlled conditions in a glasshouse (at 24/16° C., day/night; 14 hours light; 65% humidity), the plants are sprayed with an aqueous spray solution derived from the formulation of the technical active ingredient in acetone/water (50:50) solution containing 0.5% Tween 20 (polyoxyethelyene sorbitan monolaurate, CAS RN 9005-64-5). Compounds are applied at 130 g/h unless otherwise indicated. The test plants are then grown in a glasshouse under controlled conditions in a glasshouse (at 24/16° C., day/night; 14 hours light; 65% humidity) and watered twice daily. After 13 days for pre and post-emergence, the test is evaluated for the percentage damage caused to the plant. The biological activities are shown in the following table on a five-point scale (5=80-100%; 4=60-79%; 3=40-59%; 2=20-39%; 1=0-19%).

[4] = tested on: Amaranthus retoflexus (AMARE); test: as above; conditions: 130 g/h, evaluated after 13 days
Method: as §1

[5] = tested on: Echinochloa crus-galli (ECHCG); test: as above; conditions: 130 g/h, evaluated after 13 days
Method: as §1

Setaria faberi (SETFA) = test: as above; conditions: 130 g/h, evaluated after 13 days
Method: as §1

[6] = tested on: Euphorbia heterophylla (EPHHIL); test: Glasshouse herbicide test, Table B1; conditions: POST Application, evaluated after 14 days

SMILES	PANMI damage to plant (100=total damage; 0=no damage) ([1]; rate 30 g/ha)	PANMI damage to plant (100=total damage; 0=no damage) ([1]; rate 130 g/ha)	PANMI damage to plant (100=total damage; 0=no damage) ([1]; rate 250 g/ha)	ORYSA damage to plant (100=total damage; 0=no damage) ([2]; rate 30 g/ha)	ORYSA damage to plant (100=total damage; 0=no damage) ([2]; rate 130 g/ha)	ORYSA damage to plant (100=total damage; 0=no damage) ([2]; rate 250 g/ha)	SINAR damage to plant (100=total damage; 0=no damage) (Sinapis arvensis (SINAR); rate 30 g/ha)	SINAR damage to plant (100=total damage; 0=no damage) (Sinapis arvensis (SINAR); rate 130 g/ha)	SINAR damage to plant (100=total damage; 0=no damage) (Sinapis arvensis (SINAR); rate 250 g/ha)	IPOHE percentage damage, five-point scale ([3]; POST Application)	IPOHE percentage damage, five-point scale ([3]; PRE Application)	AMARE percentage damage, five-point scale ([4]; POST Application)	AMARE percentage damage, five-point scale ([4]; PRE Application)	ECHCG percentage damage, five-point scale ([5]; POST Application)	ECHCG percentage damage, five-point scale ([5]; PRE Application)	SETFA percentage damage, five-point scale (Setaria faberi (SETFA); POST Application)	SETFA percentage damage, five-point scale (Setaria faberi (SETFA); PRE Application)	EPHHL damage to plant (100=total damage; 0=no damage) ([6]; rate 30 g/ha)	EPHHL damage to plant (100=total damage; 0=no damage) ([6]; rate 130 g/ha)	EPHHL damage to plant (100=total damage; 0=no damage) ([6]; rate 250 g/ha)
Cn1nnnc1NC(=O)c1ccc(OC(F)(F)F)c(NC(=O)C2CCOCC2)c1Cl [Compound 1.001, N-[2-chloro-3-[(1-methyltetrazol-5-yl)carbamoyl]-6-(trifluoromethoxy)phenyl]-tetrahydropyran-4-carboxamide]	90	100	100	0	0	0	100	100	100	5 (5=80-100%)	4 (4=60-79%)	5 (5=80-100%)	5 (5=80-100%)	5 (5=80-100%)	5 (5=80-100%)	5 (5=80-100%)	5 (5=80-100%)	100	100	100
Cn1nnnc1NC(=O)c1ccc(OC(F)F)c(NC(=O)C2CCOCC2)c1Cl [Compound 1.002, N-[2-chloro-6-(difluoromethoxy)-3-[(1-methyltetrazol-5-yl)carbamoyl]phenyl]tetrahydropyran-4-carboxamide]	90	100	100	0	10	20	90	100	100	4 (4=60-79%)	5 (5=80-100%)	5 (5=80-100%)	5 (5=80-100%)	5 (5=80-100%)	5 (5=80-100%)	5 (5=80-100%)	5 (5=80-100%)	90	100	100
Cn1nnnc1NC(=O)c1ccc(OC(F)(F)F)c(NC(=O)C2(C)CCOCC2)c1Cl [Compound 1.007]	–	–	–	–	–	–	–	–	–	–	3 (3=40-59%)	5 (5=80-100%)	5 (5=80-100%)	5 (5=80-100%)	2 (2=20-39%)	5 (5=80-100%)	1 (1=0-19%)	–	–	–
Cn1nnnc1NC(=O)c1ccc(OC(F)F)c(NC(=O)C2(C)CCOCC2)c1Cl [Compound 1.009]	–	–	–	–	–	–	–	–	–	4 (4=60-79%)	2 (2=20-39%)	5 (5=80-100%)	5 (5=80-100%)	4 (4=60-79%)	1 (1=0-19%)	2 (2=20-39%)	1 (1=0-19%)	–	–	–
Cc1c(C(=O)Nc2nnnn2C)ccc(OC(F)(F)F)c1NC(=O)C1CCOCC1 [Compound 1.010]	–	–	–	–	–	–	–	–	–	4 (4=60-79%)	2 (2=20-39%)	4 (4=60-79%)	5 (5=80-100%)	5 (5=80-100%)	3 (3=40-59%)	5 (5=80-100%)	2 (2=20-39%)	–	–	–
CCn1nnnc1NC(=O)c1ccc(OC(F)(F)F)c(NC(=O)C2CCOCC2)c1Cl [Compound 1.011]	–	–	–	–	–	–	–	–	–	5 (5=80-100%)	5 (5=80-100%)	5 (5=80-100%)	5 (5=80-100%)	5 (5=80-100%)	5 (5=80-100%)	5 (5=80-100%)	5 (5=80-100%)	–	–	–
CCn1nnnc1NC(=O)c1ccc(OC(F)F)c(NC(=O)C2CCOCC2)c1Cl [Compound 1.012]	–	–	–	–	–	–	–	–	–	4 (4=60-79%)	4 (4=60-79%)	5 (5=80-100%)	4 (4=60-79%)	5 (5=80-100%)	5 (5=80-100%)	5 (5=80-100%)	3 (3=40-59%)	–	–	–
